# Earlier results in patent US8728489B2, “Immunotherapy for chronic hepatitis C virus infection” (priority 2008, dated 2014).
# What was measured:
# [1] = in vivo
compound,measurement,setting,value
"NC(=O)c1ncn([C@@H]2O[C@H](CO)[C@@H](O)[C@H]2O)n1 [Ribavirin, 1-(beta)-D-ribofuranosyl-1H-1,2,4-triazole-3-carboxamide]",patients with hemolytic anemia,[1],20-30%
same,solubility in anhydrous alcohol,,slightly soluble
same,solubility in water,,freely soluble
